Measured values reported in US20140094493A1, “Novel Ether Linked Compounds and Improved Treatments for Cardiac and Cardiovascular Disease” (priority 2011, published 2014).
Where a name gives a salt, the structure may show the parent alone.

Key:
human beta2-adrenoceptor = target: T1, human beta2-adrenoceptor (Homo sapiens, UniProt P07550); assay: 3H-CGP12177 whole-cell binding, beta2; conditions: 3H-CGP 12177 whole cell binding, CHO cells expressing human beta2-adrenoceptor, logarithmic value; for Kd: read-out: Beta 2 Log KD (converted)
T1 construct: expressed in transfected cells; host or cells: CHO cells
T1 sequence (P07550 whole entry): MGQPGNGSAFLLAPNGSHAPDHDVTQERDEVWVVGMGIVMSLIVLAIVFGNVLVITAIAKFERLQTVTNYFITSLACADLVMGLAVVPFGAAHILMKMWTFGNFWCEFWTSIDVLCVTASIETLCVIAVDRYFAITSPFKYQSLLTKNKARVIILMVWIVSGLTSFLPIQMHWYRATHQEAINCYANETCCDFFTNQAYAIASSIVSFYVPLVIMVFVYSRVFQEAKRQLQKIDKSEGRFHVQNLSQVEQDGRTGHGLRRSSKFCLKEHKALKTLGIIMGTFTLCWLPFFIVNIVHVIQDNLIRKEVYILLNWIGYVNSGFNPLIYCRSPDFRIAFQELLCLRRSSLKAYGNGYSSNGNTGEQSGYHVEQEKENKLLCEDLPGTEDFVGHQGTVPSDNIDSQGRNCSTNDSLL
Protocol: (§1) Selectivity of ligands for the three beta-adrenoceptors was assessed by whole-cell binding studies using ^3H-CGP12177 in CHO cells expressing the human beta1, beta2 or beta3-adrenoceptors respectively essentially as described by Baker (2005; Br. J Pharmacol: 144, 317-22) Values shown are KD values determined as described by Baker (2005). KD represents the concentration of compound required to occupy 50% of the receptors in cells or tissues.
(§2) The selectivity of a ligand is given by the ratio of beta-1 to beta-2 KD. Accordingly a difference of one in the logarithmic values thereof represents a 10-fold selectivity, a difference of 2 represents 100-fold selectivity and a difference of 3 represents 1000-fold selectivity etc.

human beta1-adrenoceptor = target: T2, human beta1-adrenoceptor (Homo sapiens, UniProt P08588); assay: 3H-CGP12177 whole-cell binding, beta1; conditions: for Kd / Beta 1 Log KD: 3H-CGP 12177 whole cell binding, CHO cells expressing human beta1-adrenoceptor, logarithmic value; for Kd: read-out: Beta 1 Log KD (converted); for Beta 1-Beta 2 Log KD (selectivity): difference of Log KD beta1 and beta2, 1 = 10-fold, 2 = 100-fold, 3 = 1000-fold selectivity
T2 construct: expressed in transfected cells; host or cells: CHO cells
T2 sequence (P08588 whole entry): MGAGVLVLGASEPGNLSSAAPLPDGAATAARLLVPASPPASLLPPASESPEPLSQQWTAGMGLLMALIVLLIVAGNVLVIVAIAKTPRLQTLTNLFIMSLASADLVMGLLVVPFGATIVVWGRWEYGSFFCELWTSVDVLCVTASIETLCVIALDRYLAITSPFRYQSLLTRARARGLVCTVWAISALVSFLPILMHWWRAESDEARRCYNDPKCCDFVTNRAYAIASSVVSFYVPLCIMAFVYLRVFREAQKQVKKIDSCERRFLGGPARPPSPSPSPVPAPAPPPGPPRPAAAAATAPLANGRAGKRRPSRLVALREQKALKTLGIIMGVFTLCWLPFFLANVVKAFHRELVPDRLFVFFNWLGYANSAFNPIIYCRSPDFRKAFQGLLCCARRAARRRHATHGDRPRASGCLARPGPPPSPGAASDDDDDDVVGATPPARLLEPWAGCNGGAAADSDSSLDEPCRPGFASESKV
Protocol: as §1, §2

SMILES	melting point [°C]	Kd (human beta2-adrenoceptor) [µM]	Kd (human beta1-adrenoceptor) [µM]	Beta 1-Beta 2 Log KD (selectivity) (human beta1-adrenoceptor)	Beta 2 Log KD (human beta2-adrenoceptor)	Beta 1 Log KD (human beta1-adrenoceptor)
NC(=O)c1ccc(OCCNC[C@H](O)COc2ccc(CCCN3CCC(F)(F)CC3)cc2)cc1 (as salt: hydrochloride) [Example 41, (S)-4-(2-(3-(4-(3-(4,4-difluoropiperidin-1-yl)propyl)phenoxy)-2-hydroxypropyl)amino)-ethoxy)benzamide dihydrochloride]	234 to 235					
COc1ccc(OCCNCC(O)COc2ccc(OCCOC3CCCC3)cc2)cc1 (racemic) [Example 3]		0.759	0.00741	2.01		
NC(=O)c1ccc(OCCNCC(O)COc2ccc(OCCOC3CCCC3)cc2)cc1 (centres unmarked) [Example 1]				2.40		
CC(=O)Nc1ccc(OCCNC[C@H](O)COc2ccc(CCCOCC3CC3)cc2)cc1 [Example 13]				2.3	−6.53	−8.83
O[C@@H](CNCCOc1ccc2ncccc2c1)COc1ccc2c(c1)OC[C@@H](COCC1CC1)O2 [Example 14]		1.26	0.00417	2.48		
O=C1NCc2cc(OCCNC[C@H](O)COc3ccc4c(c3)OC[C@@H](COCC3CC3)O4)ccc21 [Example 18]		4.68	0.00457	3.01		
NC(=O)c1ccc(OCCNC[C@H](O)COc2ccc(CCOCC3CC3)cc2)cc1 [Example 20]				2.28	−6.71	−8.99
O[C@@H](CNCCOc1ccc2nccnc2c1)COc1ccc(CCCOCC2CC2)cc1 [Example 21]		0.427	0.00275	2.19		
O=C1NCc2cc(OCCNC[C@H](O)COc3ccc4c(c3)OC[C@@H](COc3ccc(F)cc3)O4)ccc21 [Example 25]		0.347	0.000794	2.64		
O=C1NCc2cc(OCCNC[C@H](O)COc3ccc4c(c3)OC[C@@H](COc3cccc(F)c3)O4)ccc21 [Example 33]		2	0.00282	2.85		
O=C1NCc2cc(OCCNC[C@H](O)COc3ccc4c(c3)OC[C@@H](COc3ccccc3F)O4)ccc21 [Example 35]				3.70	−4.98	−8.68
O=C1NCc2cc(OCCNC[C@H](O)COc3ccc4c(c3)OC[C@@H](COc3c(F)cccc3F)O4)ccc21 [Example 38]				3.34	−5.20	−8.54
NC(=O)c1ccc(OCCNC[C@H](O)COc2ccc(CCCN3CCC(F)(F)CC3)cc2)cc1 [Example 41, (S)-4-(2-(3-(4-(3-(4,4-difluoropiperidin-1-yl)propyl)phenoxy)-2-hydroxypropyl)amino)-ethoxy)benzamide dihydrochloride]		1.35	0.00182	2.87		
O=C1NCc2cc(OCCNC[C@H](O)COc3ccc(CCCOC4CC4)cc3)ccc21 [Example 45]				2.65	−6.52	−9.17
NC(=O)c1ccc(OCCNC[C@H](O)COc2ccc(CCCOC3CC3)cc2)cc1 [Example 46]				2.57	−6.10	−8.67
